Test results as given in article PMC11392934 (Nature Communications, 2024).

How the values were obtained:
[1] = biological target: T1, MleS (Lactococcus lactis, UniProt Q48662); experiment: initial H+ consumption rate by pH microelectrode; format: biochemical; conditions: product inhibition; 5 mM L-malate, pH 7, 30 °C
T1 sequence (Q48662 1-540): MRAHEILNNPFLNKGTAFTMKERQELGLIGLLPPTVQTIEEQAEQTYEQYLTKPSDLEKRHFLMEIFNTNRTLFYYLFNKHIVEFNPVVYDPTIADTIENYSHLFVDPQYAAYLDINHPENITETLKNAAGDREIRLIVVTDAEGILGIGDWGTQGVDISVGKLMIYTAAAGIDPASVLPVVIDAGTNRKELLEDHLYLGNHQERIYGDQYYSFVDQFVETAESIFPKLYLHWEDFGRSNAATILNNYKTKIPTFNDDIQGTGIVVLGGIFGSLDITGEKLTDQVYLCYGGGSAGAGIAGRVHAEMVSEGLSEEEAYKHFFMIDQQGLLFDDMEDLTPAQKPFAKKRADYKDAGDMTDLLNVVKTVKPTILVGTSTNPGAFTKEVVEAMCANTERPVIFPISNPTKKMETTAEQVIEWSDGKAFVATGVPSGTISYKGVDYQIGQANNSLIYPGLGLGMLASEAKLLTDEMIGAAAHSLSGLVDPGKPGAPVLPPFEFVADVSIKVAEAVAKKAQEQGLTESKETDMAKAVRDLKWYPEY

[2] = biological target: T2, LacY (Escherichia coli, UniProt P02920); experiment: inhibition of lactose-dependent NADPH production in MleP-LacY vesicles; format: biochemical; conditions: 100 µM D-lactose, pH 7, 30 °C; competitive; coupled read-out
T2 sequence (P02920 1-417): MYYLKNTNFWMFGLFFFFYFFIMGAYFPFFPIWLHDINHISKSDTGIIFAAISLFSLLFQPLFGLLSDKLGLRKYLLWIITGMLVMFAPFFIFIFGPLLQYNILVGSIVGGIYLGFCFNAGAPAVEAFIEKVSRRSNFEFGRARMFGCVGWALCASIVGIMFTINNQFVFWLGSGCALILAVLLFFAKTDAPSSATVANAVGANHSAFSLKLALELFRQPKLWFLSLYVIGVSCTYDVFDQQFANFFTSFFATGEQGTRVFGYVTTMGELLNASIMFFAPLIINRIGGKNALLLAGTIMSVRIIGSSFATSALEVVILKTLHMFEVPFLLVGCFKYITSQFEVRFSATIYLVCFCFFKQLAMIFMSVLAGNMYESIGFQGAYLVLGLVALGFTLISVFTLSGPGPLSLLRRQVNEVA

SMILES	% reduction of initial rate at 25 mM [1] [%]	effect at 20 mM [2]
C[C@H](O)C(=O)O [L-lactate]	50	–
CS[C@@H]1O[C@H](CO)[C@H](O)[C@H](O)[C@H]1O [methyl-β-D-thiogalactoside]	–	methyl-β-D-thiogalactoside (TMG) and thiodigalactoside (TDG)
OC[C@H]1O[C@@H](S[C@@H]2O[C@H](CO)[C@H](O)[C@H](O)[C@H]2O)[C@H](O)[C@@H](O)[C@H]1O [thiodigalactoside]	–	NADPH fluorescence is reduced in the presence non-hydrolysable substrates
